{
  "source": "paper PMC9259591",
  "about": "“Irigenin, a novel lead from Iris confusa for management of Helicobacter pylori infection with selective COX-2 and HpIMPDH inhibitory potential” (Scientific Reports, 2022)",
  "key": {"[1]": {"target": "T1, H. pylori inosine-5′-monophosphate dehydrogenase (HpIMPDH) (Helicobacter pylori, UniProt P56088)", "T1 sequence (P56088 1-481)": "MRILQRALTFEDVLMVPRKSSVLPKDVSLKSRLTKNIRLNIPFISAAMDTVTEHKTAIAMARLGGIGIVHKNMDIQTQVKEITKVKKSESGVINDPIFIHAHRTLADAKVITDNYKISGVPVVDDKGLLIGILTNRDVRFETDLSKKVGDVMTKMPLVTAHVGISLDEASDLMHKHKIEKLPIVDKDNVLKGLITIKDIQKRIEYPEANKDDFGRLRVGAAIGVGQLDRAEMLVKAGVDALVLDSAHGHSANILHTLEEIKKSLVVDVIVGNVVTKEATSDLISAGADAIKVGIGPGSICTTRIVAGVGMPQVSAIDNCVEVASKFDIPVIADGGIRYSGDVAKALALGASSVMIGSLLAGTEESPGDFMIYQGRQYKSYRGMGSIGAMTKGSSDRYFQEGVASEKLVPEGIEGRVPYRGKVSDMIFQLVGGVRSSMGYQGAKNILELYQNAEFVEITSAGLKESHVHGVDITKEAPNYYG", "assay": "In vitro HpIMPDH inhibition assay (NADH fluorescence)", "format": "biochemical", "parameters": "HpIMPDH inhibitory activity: unit not given here", "description": "The assay was carried out according to Galal[40] and was described in detail in the supplementary file.\n(§1) Thus, irigenin was selected to test its HpIMPDH inhibitory activity by monitoring NADH production at concentration range of 10–0.078 µM compared to clarithromycin as standard drug. Also, to examine irigenin selectivity toward the bacterial IMPDH, human hIMPDH2 inhibition potential was assayed.\nThe assay was carried out in a final volume of two hundred μL in black 96-well plate (Tarsons Products Pvt. Ltd., Kolkata, India) with a reaction buffer composed of one hundred mM KCl, fifty mM Tris–HCl (pH 8.6), and one mM dithiothreitol (DTT). One hundred nM H. pylori inosine-5′-monophosphate dehydrogenase (HpIMPDH) in the presence/absence of the tested compound were used. The assay mixture was then incubated at 37 °C for 10 min, and the reaction was initiated by the adding 250 μM of inosine 5ʹ‐monophosphate (IMP) and 300 μM of nicotinamide adenine dinucleotide (NAD^+) substrate buffer. The assay was allowed to proceed for 45 min at 37 °C.\nThe formed NADH was measured by recording the fluorescence (excitation 340 nm, emission 440 nm) using PerkinElmer EnVision Multilabel Reader (Waltham, MA) at an interval of one min. DMSO and clarithromycin were used as vehicle control and positive control, respectively. The concentration of the tested sample leading to 50% HpIMPDH inhibition (IC50) was estimated."}, "[2]": {"target": "T2, Human inosine-5′-monophosphate dehydrogenase (hIMPDH2) (Homo sapiens, UniProt P12268)", "T2 construct": "purchased NovoCIB SAS (Lyon, France)", "assay": "In vitro hIMPDH2 inhibition assay (NADH absorbance at 340 nm)", "format": "biochemical", "parameters": "key to hIMPDH2 inhibitory activity: % hIMPDH2 inhibition", "details": "for hIMPDH2 inhibitory activity: in % (unit assumed)", "description": "Human inosine-5′-monophosphate dehydrogenase (hIMPDH2) was purchased from NovoCIB SAS (Lyon, France). […] The detailed procedures were described in the supplementary file.\nas §1\nHuman inosine-5′-monophosphate dehydrogenase (hIMPDH2) was purchased from NovoCIB SAS (Lyon, France). […] The assay was carried out in 96-well plates (Tarsons, 980040). The reaction buffer consisted of hundred mM KCl, hundred mM Tris–HCl (pH 8.6), and five mM DTT, 4% v/v DMSO with or without the tested compound and 0.15 mU of purified hIMPDH2 enzyme per well (from 1.5 mg/mL stock concentration). The enzyme stock solution final volume was 2 μL per well, which was insignificant to cause final assay buffer composition change. Addition of (substrate buffer) 0.2 mM of IMP and 0.2 mM of NAD^+ initiated the assay, then it was allowed to proceed for 30 min at 37 °C. The formed NADH was measured by reading the absorbance at 340 nm. […] The concentration of the tested sample leading to 50% hIMPDH2 inhibition (IC50) was estimated."}, "H. pylori ATCC 700392": {"tested_on": "H. pylori ATCC 700392", "assay": "anti-Helicobacter pylori activity, microwell dilution method with MTT", "format": "cell-based", "details": "for MIC: read-out: MIC (H. pylori)", "description": "The anti-Helicobacter pylori activity of the PF and NPF as well as the isolated compounds was evaluated against H. pylori ATCC 700392 (type strain, obtained from the American Type Culture Collection unit (ATCC), using microwell dilution method and clarithromycin as standard drug[37]. The detailed procedures were described in the supplementary file.\nThe anti-Helicobacter pylori activity of the PF and NPF as well as the isolated compounds was evaluated against H. pylori ATCC 700392 (a type strain, obtained from the American Type Culture Collection unit (ATCC), using microwell dilution method and clarithromycin as standard drug ^1. The tested samples were prepared in dimethyl sulfoxide and successive ten twofold dilutions (125- 0.24 µg/mL) were carried out in a 96-well plate. Each microplate well included forty μL of Brain Heart Infusion growth medium and 10% fetal bovine serum (FBS), ten μL of inoculum and fifty μL of the tested sample. The plates were incubated for 3 days, in 5% oxygen, 10% carbon dioxide, 85 % nitrogen atmosphere at 37°C. Forty μL of 3- (4, 5-dimethyl-thiazol-2-yl)- 2,5-diphenyl-tetrazolium bromide (MTT) at a final concentration of 0.5 mg/mL freshly prepared in H2O was added to each well and incubated for 30 min. The bacteria were biologically active when change to purple color was observed ^1. While no change in MTT color indicated inhibition. Solvent control (DMSO) and the standard antibiotic (clarithromycin) were used as negative and positive controls, respectively. The H. pylori inhibition % was calculated using the given formula:\n% Inhibition = Abs control – Abs sample × 100 /Abs control."}, "[3]": {"details": "sample conc. 0.078 (range 10–0.078 µM)"}, "[4]": {"details": "sample conc. 0.156 (range 10–0.078 µM)"}, "[5]": {"details": "sample conc. 0.313 (range 10–0.078 µM)"}, "[6]": {"details": "sample conc. 0.625 (range 10–0.078 µM)"}, "[7]": {"details": "sample conc. 1.25 (range 10–0.078 µM)"}, "[8]": {"details": "sample conc. 2.5 (range 10–0.078 µM)"}, "[9]": {"details": "sample conc. 5 (range 10–0.078 µM)"}, "[10]": {"details": "sample conc. 10 (range 10–0.078 µM)"}},
  "note": "Several values for one entry are separate records, joined by “and”; a condition that tells them apart may be missing. Identical values can stand only once. Like-named read-outs stand apart in the source and are kept apart here.",
  "data": [
    {"smiles": "COc1cc(-c2coc3cc(O)c(OC)c(O)c3c2=O)cc(O)c1OC", "note": "[Irigenin (P3), 3′,5,7-trihydroxy-4′,5′,6 trimethoxyisoflavone]", "values": [
      {"measurement": "IC50", "setting": "[1]", "result": "2070 ± 1900", "unit": "nM"},
      {"measurement": "HpIMPDH inhibitory activity", "setting": "[1]; [3]", "result": 0.00},
      {"measurement": "HpIMPDH inhibitory activity", "setting": "[1]; [4]", "result": 0.00},
      {"measurement": "HpIMPDH inhibitory activity", "setting": "[1]; [5]", "result": "6.14 ± 1.90"},
      {"measurement": "HpIMPDH inhibitory activity", "setting": "[1]; [6]", "result": "10.25 ± 2.80"},
      {"measurement": "HpIMPDH inhibitory activity", "setting": "[1]; [7]", "result": "24.19 ± 1.70"},
      {"measurement": "HpIMPDH inhibitory activity", "setting": "[1]; [8]", "result": "59.31 ± 1.40"},
      {"measurement": "HpIMPDH inhibitory activity", "setting": "[1]; [9]", "result": "71.08 ± 1.30"},
      {"measurement": "HpIMPDH inhibitory activity", "setting": "[1]; [10]", "result": "83.25 ± 0.58"},
      {"measurement": "IC50", "setting": "[2]", "result": "> 10000", "unit": "nM"},
      {"measurement": "hIMPDH2 inhibitory activity", "setting": "[2]; [3]", "result": 0.00},
      {"measurement": "hIMPDH2 inhibitory activity", "setting": "[2]; [4]", "result": 0.00},
      {"measurement": "hIMPDH2 inhibitory activity", "setting": "[2]; [5]", "result": 0.00},
      {"measurement": "hIMPDH2 inhibitory activity", "setting": "[2]; [6]", "result": 0.00},
      {"measurement": "hIMPDH2 inhibitory activity", "setting": "[2]; [7]", "result": 0.00},
      {"measurement": "hIMPDH2 inhibitory activity", "setting": "[2]; [8]", "result": "4.81 ± 0.91"},
      {"measurement": "hIMPDH2 inhibitory activity", "setting": "[2]; [9]", "result": "10.36 ± 0.72"},
      {"measurement": "hIMPDH2 inhibitory activity", "setting": "[2]; [10]", "result": "22.68 ± 1.00"},
      {"measurement": "MIC", "setting": "H. pylori ATCC 700392; Helicobacter pylori, ATCC700392", "result": "3.9 µg/mL and 10.8 µM"},
      {"measurement": "MIC (H. pylori)", "setting": "H. pylori ATCC 700392; concentration required for 100% inhibition, H. pylori ATCC 700392, ND = not detected", "result": 3.90, "unit": "µg/mL"},
      {"measurement": "MIC", "setting": "H. pylori ATCC 700392; concentration required for 100% inhibition, H. pylori ATCC 700392", "result": 10.82, "unit": "µM"}
    ]}
  ]
}
